From patent US8124793B2, “Derivatives of ethylene methanedisulfonate as cancer chemotherapeutic agents” (priority 2007, dated 2012)

Columns and labels:
Format in all cases: cell-based
[1] = test system: SF-539; experiment: NCI screen, growth of human tumor cells: CNS Cancer SF-539
Description: (§1) In the NCI screening process, each compound was tested and described by a minimum of 60 data points. The test data include, but are not limited to the type of cancer, the molar concentration used in the screen, and the percent growth of the cancer. In some cases, NMR and elemental analysis were used for structural assignment.

[2] = test system: NCI-H522; experiment: NCI screen, growth of human tumor cells: Non-Small Cell Lung NCI-H522
Description: as §1

[3] = test system: human cancer cells; experiment: NCI screen summary over the cancers tested (negative growth of human cancer cells); settings: 10^−4 M conc.; cancers with negative growth / cancers tested
Description: as §1
The derivatives in the tables are grouped using the same category as in the tables 1-6.

[4] = test system: HCT-15; experiment: NCI screen, growth of human tumor cells: Colon Cancer HCT-15; settings: HCT-15 (Colon Cancer), 10^−4 molar
Description: as §1

[5] = test system: MOLT-4; experiment: NCI screen, growth of human tumor cells: Leukemia MOLT-4; settings: MOLT-4 (Leukemia), 10^−4 molar
Description: as §1

[6] = test system: CCRF-CEM; experiment: NCI screen, growth of human tumor cells: Leukemia CCRF-CEM; settings: for % Growth: CCRF-CEM; for percent of growth of human tumor cells: CCRF-CEM (Leukemia)
Description: as §1

[7] = test system: K562; experiment: NCI screen, growth of human tumor cells: Leukemia K562
Description: as §1

[8] = test system: CAKI-1; experiment: NCI screen, growth of human tumor cells: Renal Cancer CAKI-1; settings: CAKI-1 (Renal Cancer), 10^−4 molar
Description: as §1

[9] = test system: RPMI-8226; experiment: NCI screen, growth of human tumor cells: Leukemia RPMI-8226; settings: RPMI-8226 (Leukemia), 10^−4 molar
Description: as §1

[10] = test system: NCI-H226; experiment: NCI screen, growth of human tumor cells: Non-Small Cell Lung NCI-H226
Description: as §1

[11] = test system: UACC-62; experiment: NCI screen, growth of human tumor cells: Melanoma UACC-62; settings: UACC-62 (Melanoma), 10^−4 molar
Description: as §1

[12] = test system: HOP-92; experiment: NCI screen, growth of human tumor cells: Non-Small Cell Lung HOP-92
Description: as §1

[13] = test system: HOP-18; experiment: NCI screen, growth of human tumor cells: Non-Small Cell Lung HOP-18
Description: as §1

[14] = test system: SR; experiment: NCI screen, growth of human tumor cells: Leukemia SR; settings: for % Growth: SR
Description: as §1

[15] = test system: RXF-393; experiment: NCI screen, growth of human tumor cells: Renal Cancer RXF-393
Description: as §1

[16] = test system: KM12; experiment: NCI screen, growth of human tumor cells: Colon Cancer KM12
Description: as §1

[17] = test system: EKVX; experiment: NCI screen, growth of human tumor cells: Non-Small Cell Lung EKVX; settings: EKVX
Description: as §1

[18] = test system: SK-MEL-5; experiment: NCI screen, growth of human tumor cells: Melanoma SK-MEL-5; settings: SK-MEL-5, 10^−4 molar
Description: as §1

O=S1(=O)OCCOS(=O)(=O)C1c1nc(Cl)c(Cl)nc1Cl [NSC 720685]
percent of growth of human tumor cells ([1]; SF-539 (CNS Cancer), 10^−4 molar): 7%
percent of growth of human tumor cells ([2]; NCI-H522 (Non-Small Cell Lung), 10^−4 molar): −22%
Percentage of cancers showing negative growth cancers tested [3]: 10^−4 M conc. = 1/4 = 25%
percent of growth of human tumor cells [4]: 7%
percent of growth of human tumor cells [5]: 24%

ethylene 2-hydroxy-2-solketalyl-ethylene-1,1-disulfonate [NSC 698123]
% Growth ([1]; SF-539, 10^−4 molar): 42%
% Growth ([1]; SF-539, 10^−5 molar): 50%
% Growth ([6]; 10^−4 molar): 32%
% Growth ([6]; 10^−5 molar): 58%
% Growth ([6]; 10^−6 molar): 57%
Percentage of cancers showing negative growth cancers tested [3]: 10^−4 M conc. = 0/3 = 0%
% Growth ([7]; K562, 10^−4 molar): 63%
% Growth ([7]; K562, 10^−5 molar): 41%

O=S1(=O)OCCCOS(=O)(=O)C1(Br)Br [compound 665940]
% Growth ([1]; SF-539, 10^−4 molar): 63%
% Growth ([1]; SF-539, 10^−5 molar): 99%
% Growth ([1]; SF-539, 10^−6 molar): 43%
% Growth ([1]; SF-539, 10^−7 molar): 62%
% Growth ([1]; SF-539, 10^−8 molar): 47%

O=S1(=O)OCCOS(=O)(=O)C1(Cl)Cl [NSC 648307]
percent of growth of human tumor cells [8]: 23%
percent of growth of human tumor cells ([6]; 10^−4 molar): 29%
Percentage of cancers showing negative growth cancers tested [3]: 10^−4 M conc. = 0/5 = 0%
percent of growth of human tumor cells [9]: 21%
percent of growth of human tumor cells ([10]; NCI-H226 (Non-Small Cell Lung), 10^−4 molar): 23%
percent of growth of human tumor cells [11]: 7%

COC=C1S(=O)(=O)OCCOS1(=O)=O [NSC 701691, ethylene 2-methoxy-1,1-ethylenedisulfonate]
% Growth ([12]; HOP-92, 10^−4 molar): 44%
% Growth ([12]; HOP-92, 10^−5 molar): 56%
% Growth ([12]; HOP-92, 10^−6 molar): 92%
% Growth ([12]; HOP-92, 10^−7 molar): 71%
% Growth ([12]; HOP-92, 10^−8 molar): 58%
percent of growth of human tumor cells ([6]; 10^−4 molar): 24%
% Growth ([2]; NCI-H522, 10^−4 molar): 66%
% Growth ([2]; NCI-H522, 10^−5 molar): 44%
% Growth ([2]; NCI-H522, 10^−6 molar): 67%
% Growth ([2]; NCI-H522, 10^−7 molar): 48%
% Growth ([2]; NCI-H522, 10^−8 molar): 73%
Percentage of cancers showing negative growth cancers tested [3]: 10^−4 M conc. = 0/6 = 0%
% Growth ([13]; HOP-18, 10^−4 molar): 44%
% Growth ([13]; HOP-18, 10^−5 molar): 56%
% Growth ([13]; HOP-18, 10^−6 molar): 92%
% Growth ([13]; HOP-18, 10^−7 molar): 71%
% Growth ([13]; HOP-18, 10^−8 molar): 58%
% Growth ([14]; 10^−4 molar): 12%
% Growth ([14]; 10^−5 molar): 49%
% Growth ([15]; RXF-393, 10^−4 molar): 23%
% Growth ([15]; RXF-393, 10^−5 molar): 55%
% Growth ([15]; RXF-393, 10^−6 molar): 60%
% Growth ([15]; RXF-393, 10^−7 molar): 68%
% Growth ([15]; RXF-393, 10^−8 molar): 63%

O=C1c2ccccc2C(=O)N1CC1S(=O)(=O)OCCOS1(=O)=O [NSC 671536]
Percentage of cancers showing negative growth cancers tested [3]: 10^−4 M conc. = 0/2 = 0%
% Growth ([16]; KM12, 10^−4 molar): 50%
% Growth ([16]; KM12, 10^−5 molar): 42%
% Growth ([16]; KM12, 10^−6 molar): 39%
% Growth ([16]; KM12, 10^−7 molar): 59%
% Growth ([16]; KM12, 10^−8 molar): 40%
percent of growth of human tumor cells ([14]; SR (Leukemia), 10^−4 molar): 15%

Cc1ccc(S(=O)(=O)NC(=O)C2S(=O)(=O)OCCOS2(=O)=O)cc1 [NSC 648303, ethylene(4-methylbenzenesulfonamidocarbonyl)methanedisulfonate]
Percentage of cancers showing negative growth cancers tested [3]: 10^−4 M conc. = 0/3 = 0%
% Growth ([13]; HOP-18, 10^−4 molar): 69%
% Growth ([13]; HOP-18, 10^−5 molar): 43%
% Growth ([13]; HOP-18, 10^−6 molar): 39%
% Growth ([13]; HOP-18, 10^−7 molar): 33%
% Growth ([13]; HOP-18, 10^−8 molar): 31%
% Growth ([17]; 10^−4 molar): 59%
% Growth ([17]; 10^−5 molar): 66%
% Growth ([17]; 10^−6 molar): 69%
% Growth ([17]; 10^−7 molar): 67%
% Growth ([17]; 10^−8 molar): 57%
% Growth ([10]; NCI-H226, 10^−4 molar): 16%
% Growth ([10]; NCI-H226, 10^−5 molar): 37%
% Growth ([10]; NCI-H226, 10^−6 molar): 51%
% Growth ([10]; NCI-H226, 10^−7 molar): 55%
% Growth ([10]; NCI-H226, 10^−8 molar): 53%

CC(=O)O[C@H]1CC[C@]2(C)C3C(=O)C[C@]4(C)[C@@H](C(C)=O)CC[C@@]4(C)[C@@H]3CC[C@H]2C1(C)C (stereo partly shown) [compound 731278]
% Growth [18]: −78%

C[Si](C)(OCCS(=O)(=O)[O-])C(=C1S(=O)(=O)OCCOS1(=O)=O)c1cccc2ccccc12.[Na+] [MWC 95-8]
Percentage of cancers showing negative growth cancers tested [3]: 10^−4 M conc. = 0/1 = 0%
